Test: Solubility of compounds in topical formulations (stirred, visual dissolution)
Format: physicochemical
Conditions: for Solubility in Non-Aqueous Formulation: Non-Aqueous Formulation (50% PEG400, 15% Transcutol P, 25% ethanol, 10% DMSO)
From the text: Several formulations were used to evaluate the solubility of the various compounds. Although any suitable pharmaceutical formulation may be used for the compounds, formulations such as those described below are suitable for administration of the compounds to the hair or scalp of a mammal such as a human being. The formulation may be sterilized before applying to a mammal such as a human being. • A Non-Aqueous Formulation, containing 50% PEG400, 15% Transcutol® P, 25% ethanol, and 10% DMSO was manufactured using the following general process: 10 g of PEG400, 3 g of Transcutol® P, 5 g of ethanol, and 2 g of DMSO were added to a clear vial. The mixture was then stirred using a stir bar until homogenous. • Aqueous Formulation 1, containing 10% PEG400, 20% Transcutol® HP, 45% ethanol, and 25% water was manufactured using the following general process: in a large amber pyrex bottle, 1) 19.98 g of PEG400 was added; 2) 40.07 g of Transcutol® HP was added; 3) 90 g of ethanol was added; 4) 50.03 g of water was added; and 5) the mixture was stirred using a magnetic stir bar for 30 mins at 800 rpm. • Aqueous Formulation 2, containing 10% propylene glycol, 20% Transcutol® HP, 45% ethanol, and 25% water was manufactured using the following process: in a large amber pyrex bottle, 1) 10.03 g propylene glycol was added; 2) 20.03 g Transcutol® HP was added; 3) 44.99 g ethanol was added; 4) 25.02 g water was added; and 5) the mixture was stirred using a magnetic stir bar for 30 mins at 800 rpm.
The solubilities of several compounds shown below in the described formulations are indicated below.
• Aqueous Formulation 1: 0.5 mg Reference Compound and 9.9996 g Aqueous Formulation 1 (0.005% w/w) were stirred at 600 RPM for 1 hour. The Reference Compound remained undissolved in 1 hour; • Aqueous Formulation 2: 0.5 mg Reference Compound and 10.0006 g Aqueous Formulation 2 (0.005% w/w) were stirred at 600 RPM for 1 hour. […]

Solubility in Non-Aqueous Formulation (dissolved / remained undissolved in 1 hour) | Solubility in Non-Aqueous Formulation (remained undissolved in 24 hours) | Solubility in Aqueous Formulation 1 (Aqueous Formulation 1 (10% PEG400, 20% Transcutol HP, 45% ethanol, 25% water), stirred at 600 RPM for 1 hour) | SMILES
≥ 0.1 % w/w | < 0.2 % w/w |  | N#C/C(=C\c1cn(-c2cccc(C(F)(F)F)c2)c2ncccc12)C(=O)O [Compound 3, (E)-2-cyano-3-(1-(3-(trifluoromethyl)phenyl)-1H-pyrrolo[2,3-b]pyridin-3-yl)acrylic acid]
 |  | < 0.005 % w/w | N#C/C(=C\c1cn(Cc2cc(C(F)(F)F)cc(C(F)(F)F)c2)c2ncccc12)C(=O)O [Reference Compound, (E)-3-(1-(3,5-bis(trifluoromethyl)benzyl)-1H-pyrrolo[2,3-b]pyridin-3-yl)-2-cyanoacrylic acid, reference compound]

Reference: patent publication US20250163045A1, “COMPOUNDS FOR TREATMENT OF HAIR LOSS” (Pelage Pharmaceuticals, Inc., priority 2021, published 2025)
